Reference: patent publication US12503438B2, “Compounds for the treatment of kinase-dependent disorders” (Exelixis, Inc., priority 2019, dated 2025)
Blank lines part the entries; values can stand above or below the compound they belong to.

What was measured:
Human Mer = target: T1, Human Mer (Homo sapiens, UniProt Q12866); experiment: Human Mer kinase assay (33P-phosphoryl transfer radiometric, KinaseProfiler); settings: biochemical activity; 10 μM ATP
T1 construct: Human Mer (residues R557-E882 with H628Q and R794A, 0.7 nM); purchased Eurofins Pharma Discovery Services UK Limited (KinaseProfiler service)
T1 sequence (Q12866 557-882 limits assumed): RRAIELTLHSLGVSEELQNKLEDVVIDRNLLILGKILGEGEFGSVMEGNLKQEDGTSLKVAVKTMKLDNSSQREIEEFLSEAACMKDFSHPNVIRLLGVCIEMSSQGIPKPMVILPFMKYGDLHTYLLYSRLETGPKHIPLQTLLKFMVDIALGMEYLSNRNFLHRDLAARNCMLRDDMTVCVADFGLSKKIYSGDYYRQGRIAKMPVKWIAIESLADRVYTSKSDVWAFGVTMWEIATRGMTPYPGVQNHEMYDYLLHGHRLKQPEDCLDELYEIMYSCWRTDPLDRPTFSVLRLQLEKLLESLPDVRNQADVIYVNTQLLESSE
Protocol: (§1) Kinase activity and compound inhibition were investigated using the ^33P-Phosphoryl transfer radiometric kinase assay, performed using the KinaseProfiler™ service of Eurofins Pharma Discovery Services UK Limited. Dose-response experiments were performed using nine compound concentrations in a 96-well microtiter plate. For each assay, all compounds were prepared to a 50× final assay concentration (50 μM) in 100% DMSO, then diluted in a half-log series, with the final top concentration at 1 μM. This working stock of the compound was added to the assay well as the first component in the reaction, followed by the remaining components as detailed in the following assay protocols below. The positive control wells (100% kinase activity) contain all components of the reaction including 2% DMSO (control for solvent effects), except the compound of interest. Blank wells contain all components of the reaction, with the reference inhibitor, staurosporine. This reference compound was used to abolish kinase activity and generated the 0% kinase activity base-line. IC50 values were calculated by nonlinear regression analysis using the sigmoidal dose-response (variable slope) curve fit on XLFit version 5.3 (ID Business Solutions).
(§2) Human Mer (residues R557-E882 with H628Q and R794A, 0.7 nM) was incubated with 8 mM MOPS pH 7.0, 0.2 mM EDTA, 30 mM NaCl, 250 μM GGMEDIYFEFMGGKKK, 10 mM magnesium acetate and 10 μM [y-^33P-ATP]. The reaction was initiated by the addition of the Mg/ATP mix. After incubation for 40 minutes at room temperature, the reaction was stopped by the addition of phosphoric acid to a concentration of 0.5%. A reaction aliquot of 10 μL was then spotted onto a P30 filtermat and washed four times for 4 minutes in 0.425% phosphoric acid and once in methanol prior to drying and scintillation counting. Incorporated ^33P was measured using the Wallac Microbeta scintillation counter (Perkin Elmer).

Met = Met (Homo sapiens, UniProt P08581); experiment: Human Met kinase assay (33P-phosphoryl transfer radiometric, KinaseProfiler); parameters: Human Met (residues R974-S1390 with A1209G and V1290L, 3.4 nM); purchased Eurofins Pharma Discovery Services UK Limited (KinaseProfiler service); settings: biochemical activity; 10 μM ATP; read-out: c-Met IC50
Protocol: as §1
(§3) Human Met (residues R974-S1390 with A1209G and V1290L, 3.4 nM) was incubated with 8 mM MOPS pH 7.0, 0.2 mM EDTA, 250 μM KKKGQEEEYVFIE, 1 mM sodium orthovanadate, 5 mM sodium-6-glycerophosphate, 10 mM magnesium acetate, and 10 μM [γ-^33P-ATP]. The reaction was initiated by the addition of the Mg/ATP mix. After incubation for 40 minutes at room temperature, the reaction was stopped by the addition of phosphoric acid to a concentration of 0.5%. A reaction aliquot of 10 μL was then spotted onto a P30 filtermat and washed four times for 4 minutes in 0.425% phosphoric acid and once in methanol prior to drying and scintillation counting. Incorporated ^33P was measured using the Wallac Microbeta scintillation counter (Perkin Elmer).

KDR = KDR (Homo sapiens, UniProt P35968); experiment: Human KDR kinase assay (33P-phosphoryl transfer radiometric, KinaseProfiler); parameters: Human KDR (residues K790-V1356, 55 nM); purchased Eurofins Pharma Discovery Services UK Limited (KinaseProfiler service); settings: biochemical activity; 10 μM ATP
Protocol: as §1
as §3, with “KDR” for “Met”, “K790-V1356, 55” for “R974-S1390 with A1209G and V1290L, 3.4”, “0.33 mg/mL myelin basic protein,” for “250 μM KKKGQEEEYVFIE, 1 mM sodium orthovanadate, 5 mM sodium-6-glycerophosphate,”

Human Axl = target: T2, Human Axl (Homo sapiens, UniProt P30530, Q764R); experiment: Human AXL kinase assay (33P-phosphoryl transfer radiometric, KinaseProfiler); settings: biochemical activity; 10 μM ATP
T2 construct: Human Axl (residues H473-A894 with Q764R, 161 nM); purchased Eurofins Pharma Discovery Services UK Limited (KinaseProfiler service)
T2 sequence (P30530 473-894 Q764R): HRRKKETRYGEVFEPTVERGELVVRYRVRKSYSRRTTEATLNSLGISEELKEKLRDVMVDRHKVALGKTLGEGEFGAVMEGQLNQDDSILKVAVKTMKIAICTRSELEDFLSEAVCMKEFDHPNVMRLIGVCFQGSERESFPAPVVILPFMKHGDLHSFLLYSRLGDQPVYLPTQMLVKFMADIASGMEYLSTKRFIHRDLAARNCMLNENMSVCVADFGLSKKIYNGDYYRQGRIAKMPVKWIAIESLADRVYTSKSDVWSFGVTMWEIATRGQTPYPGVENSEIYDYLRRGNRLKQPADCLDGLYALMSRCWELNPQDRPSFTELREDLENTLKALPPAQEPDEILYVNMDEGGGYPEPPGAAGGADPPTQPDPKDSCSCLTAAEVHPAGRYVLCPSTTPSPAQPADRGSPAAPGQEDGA
Protocol: as §1
as §2, with “Axl” for “Mer”, “H473-A894” for “R557-E882”, “Q764R, 161” for “H628Q and R794A, 0.7”, “EDTA,” for “EDTA, 30 mM NaCl,”, “KKSRGDYMTMQIG,” for “GGMEDIYFEFMGGKKK,”, “acetate,” for “acetate”

Met, sequence (P08581 974-1390): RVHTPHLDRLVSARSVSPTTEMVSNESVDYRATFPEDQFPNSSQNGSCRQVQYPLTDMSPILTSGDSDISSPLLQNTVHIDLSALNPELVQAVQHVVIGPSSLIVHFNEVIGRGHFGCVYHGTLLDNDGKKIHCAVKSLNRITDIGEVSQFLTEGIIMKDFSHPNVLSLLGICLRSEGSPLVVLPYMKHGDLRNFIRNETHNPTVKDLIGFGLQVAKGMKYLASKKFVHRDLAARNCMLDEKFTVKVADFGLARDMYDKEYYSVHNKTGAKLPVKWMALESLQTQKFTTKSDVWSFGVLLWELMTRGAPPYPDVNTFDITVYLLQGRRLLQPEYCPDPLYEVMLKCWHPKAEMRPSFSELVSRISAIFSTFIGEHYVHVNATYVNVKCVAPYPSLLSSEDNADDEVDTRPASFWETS
KDR, sequence (P35968 790-1356): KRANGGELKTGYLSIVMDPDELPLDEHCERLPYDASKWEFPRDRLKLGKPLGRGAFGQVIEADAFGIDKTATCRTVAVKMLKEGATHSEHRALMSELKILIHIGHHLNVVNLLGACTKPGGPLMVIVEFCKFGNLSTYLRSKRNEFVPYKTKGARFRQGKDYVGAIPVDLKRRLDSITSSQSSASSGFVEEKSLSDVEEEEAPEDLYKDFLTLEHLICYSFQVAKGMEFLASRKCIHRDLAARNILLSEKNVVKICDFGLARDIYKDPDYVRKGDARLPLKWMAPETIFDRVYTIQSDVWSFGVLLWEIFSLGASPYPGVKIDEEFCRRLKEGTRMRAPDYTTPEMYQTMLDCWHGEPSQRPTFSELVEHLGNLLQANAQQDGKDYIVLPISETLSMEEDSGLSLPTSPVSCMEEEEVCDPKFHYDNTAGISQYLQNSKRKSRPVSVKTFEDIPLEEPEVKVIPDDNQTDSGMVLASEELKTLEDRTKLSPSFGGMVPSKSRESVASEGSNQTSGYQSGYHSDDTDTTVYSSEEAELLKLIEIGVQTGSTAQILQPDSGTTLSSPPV

Structure (SMILES): O=C(Nc1ccc(F)cc1)C1(C(=O)Nc2ccc(Oc3ccnc4cc(-c5nnco5)ccc34)cc2)CC1 [Compound 73, 1-N′-(4-Fluorophenyl)-1-N-[4-[7-(1,3,4-oxadiazol-2-yl)quinolin-4-yl]oxyphenyl]cyclopropane-1,1-dicarboxamide]
- IC50 (Human Mer): ≤ 0.01 µM
- IC50 (Met): ≤ 0.01 µM
- IC50 (KDR): 0.01 to 0.1 µM
- IC50 (Human Axl): 0.01 to 0.1 µM

Structure (SMILES): O=C(Nc1ccc(F)cc1)C1(C(=O)Nc2ccc(Oc3ccnc4cc(-c5ncc[nH]5)ccc34)cc2)CC1 [Compound 74, 1-N′-(4-Fluorophenyl)-1-N-[4-[7-(1H-imidazol-2-yl)quinolin-4-yl]oxyphenyl]cyclopropane-1,1-dicarboxamide]
- IC50 (Human Mer): ≤ 0.01 µM
- IC50 (Met): ≤ 0.01 µM
- IC50 (KDR): 0.01 to 0.1 µM
- IC50 (Human Axl): ≤ 0.01 µM

Structure (SMILES): Cn1ccnc1-c1ccc2c(Oc3ccc(NC(=O)C4(C(=O)Nc5ccc(F)cc5)CC4)cc3)ccnc2c1 [Compound 75, 1-N′-(4-Fluorophenyl)-1-N-[4-[7-(1-methylimidazol-2-yl)quinolin-4-yl]oxyphenyl]cyclopropane-1,1-dicarboxamide]
- IC50 (Human Mer): ≤ 0.01 µM
- IC50 (Met): ≤ 0.01 µM
- IC50 (KDR): 0.01 to 0.1 µM
- IC50 (Human Axl): 0.01 to 0.1 µM

Structure (SMILES): COc1cc2c(Oc3ccc(NC(=O)C4(C(=O)Nc5ccc(F)cc5)CC4)cc3)ccnc2cc1-c1cnn(C)c1 [Compound 76, 1-N′-(4-Fluorophenyl)-1-N-[4-[6-methoxy-7-(1-methylpyrazol-4-yl)quinolin-4-yl]oxyphenyl]cyclopropane-1,1-dicarboxamide]
- IC50 (Human Mer): ≤ 0.01 µM
- IC50 (Met): ≤ 0.01 µM
- IC50 (KDR): 0.01 to 0.1 µM
- IC50 (Human Axl): ≤ 0.01 µM

Structure (SMILES): CNC(=O)c1cc2c(Oc3ccc(NC(=O)C4(C(=O)Nc5ccc(F)cc5)CC4)cc3)ccnc2cc1-c1cnn(C)c1 [Compound 77, 1-N′-(4-Fluorophenyl)-1-N-[4-[6-(methylcarbamoyl)-7-(1-methylpyrazol-4-yl)quinolin-4-yl]oxyphenyl]cyclopropane-1,1-dicarboxamide]
- IC50 (Human Mer): ≤ 0.01 µM
- IC50 (Met): ≤ 0.01 µM
- IC50 (KDR): 0.01 to 0.1 µM
- IC50 (Human Axl): 0.01 to 0.1 µM

Structure (SMILES): Cc1cc2c(Oc3ccc(NC(=O)C4(C(=O)Nc5ccc(F)cc5)CC4)cc3)ccnc2cc1-c1cnn(C)c1 [Compound 78, 1-N′-(4-Fluorophenyl)-1-N-[4-[6-methyl-7-(1-methylpyrazol-4-yl)quinolin-4-yl]oxyphenyl]cyclopropane-1,1-dicarboxamide]
- IC50 (Human Mer): ≤ 0.01 µM
- IC50 (Met): ≤ 0.01 µM
- IC50 (KDR): 0.01 to 0.1 µM
- IC50 (Human Axl): ≤ 0.01 µM

Structure (SMILES): CS(=O)(=O)n1cc(-c2ccc3c(Oc4ccc(NC(=O)C5(C(=O)Nc6ccc(F)cc6)CC5)cc4)ccnc3c2)cn1 [Compound 79, 1-N′-(4-Fluorophenyl)-1-N-[4-[7-(1-methylsulfonylpyrazol-4-yl)quinolin-4-yl]oxyphenyl]cyclopropane-1,1-dicarboxamide]
- IC50 (Human Mer): ≤ 0.01 µM
- IC50 (Met): ≤ 0.01 µM
- IC50 (KDR): 0.01 to 0.1 µM
- IC50 (Human Axl): ≤ 0.01 µM

Structure (SMILES): CC1Cc2cc(F)ccc2N1C(=O)C1(C(=O)Nc2ccc(Oc3ccnc4cc(-c5cnn(C)c5)ccc34)cc2)CC1 (centres unmarked) [Compound 80, 1-(5-Fluoro-2-methyl-2,3-dihydroindole-1-carbonyl)-N-[4-[7-(1-methylpyrazol-4-yl)quinolin-4-yl]oxyphenyl]cyclopropane-1-carboxamide]
- IC50 (Human Mer): 0.1 to 1 µM
- IC50 (Met): 0.01 to 0.1 µM
- IC50 (KDR): 0.1 to 1 µM
- IC50 (Human Axl): 0.01 to 0.1 µM

Structure (SMILES): Cn1cc(-c2ccc3c(Oc4ccc(NC(=O)C5(C(=O)N6CCc7cc(F)ccc76)CC5)cc4)ccnc3c2)cn1 [Compound 81, 1-(5-Fluoro-2,3-dihydroindole-1-carbonyl)-N-[4-[7-(1-methylpyrazol-4-yl)quinolin-4-yl]oxyphenyl]cyclopropane-1-carboxamide]
- IC50 (Human Mer): 0.01 to 0.1 µM
- IC50 (Met): ≤ 0.01 µM
- IC50 (KDR): 0.01 to 0.1 µM
- IC50 (Human Axl): ≤ 0.01 µM

Continued, values first:

- IC50 (Human Mer): ≤ 0.01 µM
- IC50 (Met): ≤ 0.01 µM
- IC50 (KDR): 0.01 to 0.1 µM
- IC50 (Human Axl): 0.01 to 0.1 µM
Structure (SMILES): O=C(Nc1ccc(F)cc1)C1(C(=O)Nc2ccc(Oc3ccnc4cc(-c5ncco5)ccc34)cc2)CC1 [Compound 66, 1-N′-(4-Fluorophenyl)-1-N-[4-[7-(1,3-oxazol-2-yl)quinolin-4-yl]oxyphenyl]cyclopropane-1,1-dicarboxamide]

- IC50 (Human Mer): ≤ 0.01 µM
- IC50 (Met): ≤ 0.01 µM
- IC50 (KDR): 0.01 to 0.1 µM
- IC50 (Human Axl): ≤ 0.01 µM
Structure (SMILES): O=C(Nc1ccc(F)cc1)C1(C(=O)Nc2ccc(Oc3ccnc4cc(-c5cn[nH]c5)ccc34)cc2)CC1 [Compound 67, 1-N′-(4-Fluorophenyl)-1-N-[4-[7-(1H-pyrazol-4-yl)quinolin-4-yl]oxyphenyl]cyclopropane-1,1-dicarboxamide]

- IC50 (Human Mer): ≤ 0.01 µM
- IC50 (Met): ≤ 0.01 µM
- IC50 (KDR): 0.01 to 0.1 µM
- IC50 (Human Axl): 0.01 to 0.1 µM
Structure (SMILES): O=C(Nc1ccc(F)cc1)C1(C(=O)Nc2ccc(Oc3ccnc4cc(-c5ccn[nH]5)ccc34)cc2)CC1 [Compound 68, 1-N′-(4-Fluorophenyl)-1-N-[4-[7-(1H-pyrazol-5-yl)quinolin-4-yl]oxyphenyl]cyclopropane-1,1-dicarboxamide]

- IC50 (Human Mer): ≤ 0.01 µM
- IC50 (Met): ≤ 0.01 µM
- IC50 (KDR): 0.01 to 0.1 µM
- IC50 (Human Axl): ≤ 0.01 µM
Structure (SMILES): Cn1cnc(-c2ccc3c(Oc4ccc(NC(=O)C5(C(=O)Nc6ccc(F)cc6)CC5)cc4)ccnc3c2)c1 [Compound 69, 1-N′-(4-Fluorophenyl)-1-N-[4-[7-(1-methylimidazol-4-yl)quinolin-4-yl]oxyphenyl]cyclopropane-1,1-dicarboxamide]

- IC50 (Human Mer): ≤ 0.01 µM
- IC50 (Met): ≤ 0.01 µM
- IC50 (KDR): 0.01 to 0.1 µM
- IC50 (Human Axl): ≤ 0.01 µM
Structure (SMILES): O=C(Nc1ccc(F)cc1)C1(C(=O)Nc2ccc(Oc3ccnc4cc(-c5cnc[nH]5)ccc34)cc2)CC1 [Compound 72, 1-N′-(4-Fluorophenyl)-1-N-[4-[7-(1H-imidazol-5-yl)quinolin-4-yl]oxyphenyl]cyclopropane-1,1-dicarboxamide]
